Experimental data published in US8114862B2, “TGR5 modulators and methods of use thereof” (Intercept Pharmaceuticals, Inc., priority 2008, dated 2012).

How the values were obtained:
[1] = Stability in human liver microsomes; settings: microsomes
[2] = Stability in human liver S9 fraction

## C[C@]12CC[C@H]3[C@@H](CCC4=CC(=O)CC[C@@]43C)[C@@H]1CC[C@@H]2O [Testosterone, reference compound]
[1]
  half-life: 8 to 20 min
[2]
  half-life: 39 min
